Experiments:
[1] = test system: NGN2 neurons (human iPS cell-derived excitatory neurons); test: Optopatch excitability assay in NGN2 neurons; format: cell-based
Text: To characterize the intrinsic excitability activity of human iPS cell-derived excitatory neurons with the Optopatch platform the two iPS cell lines, “11a” and “20b”, from Example 1 were used. These two iPS cell lines were derived from two neurologically healthy male subjects. The 11a and 20b iPS cells are converted into excitatory neurons using a transcriptional programming approach whereby the pro-neuronal transcription factor NEUROGENIN2 (NGN2) is overexpressed using doxycycline responsive lentiviral constructs as described in Example 1. This process drives the rapid conversion of iPS cells into neurons that resemble cortical excitatory neurons.
The resulting neurons are cryopreserved and subsequently thawed.
The thawed cells are co-cultured with primary rodent glia to facilitate neuronal electrophysiological maturation. To enable Optopatch measurements, the cells are transduced with lentiviral constructs expressing Optopatch components driven by the neuronal excitatory promoter CAMK2A and signals are recorded from the cells 2 weeks later. At the time of Optopatch measurements, the NGN2 excitatory neuron are homogeneous and electrophysiologically active, yielding highly stereotyped and reproducible data across cells, dishes, differentiation rounds and cell lines.
Optopatch measurements are carried out in a custom-built ultra-widefield fluorescence microscope, as described herein. Using this platform, intrinsic excitability properties are recorded for 11a and 20b NGN2 neuronal cultures at DIV25 in the presence of synaptic blockers NBQX, D-AP5 and Gabazine to block AMPA, NMDA and GABA currents, respectively. A custom blue light stimulus protocol of three 500 ms blue light steps of increasing intensity (1, 15 and 75 mW/cm^2) followed by two 2 second ramps of linearly increasing intensity (0.5-10 mW/cm^2 and 0.5-110 mW/cm^2) is used to elicit a range of activity from individual neurons. ˜50 to 100 neurons are simultaneously stimulated and recorded in a single field of view.
High signal-to-noise ratio (SNR) fluorescence-time traces are generated, and action potentials can be detected with high fidelity. Individual action potentials are detected for each of the hundreds of neurons and recorded with Optopatch and plotted on a spike raster plot, where each row represents a single neuron, and each dot represents a detected spike. While individual neurons show a diversity of spiking behavior throughout the stimulus protocol, the average firing rate of the population is remarkably similar for both cell lines.
The sensitivity of an excitability assay for detecting pharmacological modulation in NGN2 neurons using the well-characterized compound quinidine, which is reported to increase spike width and reduce spike activity is tested. […] These changes can be observed in the individual traces at 10 μM and 30 μM quinidine.
Additional quantification of both the response to quinidine and retigabine in is determined using an Optopatch excitability assay. Quinidine has been reported to block several voltage-, Na^+ and Ca^++ gated potassium channels (KNa1.1, KCa5.1, K2P16.1, Kv1.5, Kv1.7, Kv10.1, Kv10.2), including two-pore forming channels as well as voltage gated Na^+ channels.

[2] = target: Kv7.2 (Homo sapiens, UniProt O43526); settings: read-out: Kv7.2 EC50; cited from earlier work
Kv7.2, sequence (O43526 whole entry): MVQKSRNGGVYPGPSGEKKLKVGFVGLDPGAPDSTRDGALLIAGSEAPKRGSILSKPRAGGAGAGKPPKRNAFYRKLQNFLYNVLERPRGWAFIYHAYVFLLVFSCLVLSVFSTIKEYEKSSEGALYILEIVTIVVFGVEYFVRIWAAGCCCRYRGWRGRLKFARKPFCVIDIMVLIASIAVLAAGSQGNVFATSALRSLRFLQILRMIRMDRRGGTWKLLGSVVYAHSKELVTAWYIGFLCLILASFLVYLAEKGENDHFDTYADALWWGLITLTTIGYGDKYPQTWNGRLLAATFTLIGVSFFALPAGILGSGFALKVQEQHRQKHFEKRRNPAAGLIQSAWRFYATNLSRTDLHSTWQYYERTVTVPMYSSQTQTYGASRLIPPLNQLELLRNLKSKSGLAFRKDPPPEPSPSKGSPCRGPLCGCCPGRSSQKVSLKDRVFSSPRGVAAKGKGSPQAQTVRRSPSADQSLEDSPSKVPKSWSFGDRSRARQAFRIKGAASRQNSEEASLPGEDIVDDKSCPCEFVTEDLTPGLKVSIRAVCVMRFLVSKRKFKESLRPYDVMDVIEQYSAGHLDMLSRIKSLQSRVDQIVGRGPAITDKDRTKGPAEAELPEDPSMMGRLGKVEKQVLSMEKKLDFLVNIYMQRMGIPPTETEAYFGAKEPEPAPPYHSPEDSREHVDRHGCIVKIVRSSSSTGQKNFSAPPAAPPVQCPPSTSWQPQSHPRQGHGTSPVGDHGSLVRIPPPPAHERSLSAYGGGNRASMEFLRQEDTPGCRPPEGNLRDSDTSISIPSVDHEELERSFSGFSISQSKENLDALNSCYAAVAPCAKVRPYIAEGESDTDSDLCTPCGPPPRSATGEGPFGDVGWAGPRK

[3] = maximum concentration tested (30 μM)

Structure (SMILES)	changes to spike waveform and firing rate ([1]; acute addition, observed in individual traces at 10 μM and 30 μM)	broadening of the spikes ([1]; concentration dependent)	mean firing rate (spike rate) versus vehicle ([1]; different concentrations, with increased blue light stimulus)	spike rate ([1]; higher stimulation intensities (15 and 75 mW/cm^2))	magnitude of the AhP depth (measured from the baseline fluorescence before the action potential) [1, 3]	spike rise time (measured from start to peak of the action potential) [1, 3]	spike width (measured from the base of the action potential) [1, 3]	time to the maximum of the after hyperpolarization (AhP) depth [1, 3]	EC50 [2]
C=C[C@H]1C[N@@]2CC[C@H]1C[C@@H]2[C@@H](O)c1ccnc2ccc(OC)cc12 [quinidine]	dramatic changes to both the spike waveform and firing rate	concentration dependent broadening of the spikes	dramatic reduction in spike rate	concentration dependent reduction in the spike rate	decreases	increases	increases	increases	
CCOC(=O)Nc1ccc(NCc2ccc(F)cc2)cc1N [retigabine]									2500 nM
